Assay results as given in ChEMBL document CHEMBL3870328, “Synthesis of novel Ral inhibitors: An in vitro and in vivo study” (Bioorg Med Chem Lett, 2016).

Assays:
[1] = Plasma concentration in mouse xenografted with human NCI-H2122 cells at 50 mg/kg, ip after 3 hrs by LC-MS/MS analysis; format: ADME, organism-based
[2] = Drug metabolism in mouse xenografted with human NCI-H2122 cells assessed as 6-amino-4-(2,5-dihydroxyphenyl)-3-(naphthalen-2-yl)-1,4-dihydropyrano[2,3-c]pyrazole-5-carbonitrile metabolite formation in tumor at 50 mg/kg, ip after 3 hrs by LC-MS/MS analysis; format: ADME, organism-based, Neoplasm; conditions: in vivo
[3] = Drug uptake in brain of mouse xenografted with human NCI-H2122 cells at 50 mg/kg, ip after 3 hrs by LC-MS/MS analysis; format: ADME, organism-based; conditions: read-out: Drug uptake
[4] = Drug metabolism in mouse xenografted with human NCI-H2122 cells assessed as M3 metabolite formation in liver at 50 mg/kg, ip after 3 hrs by LC-MS/MS analysis; format: ADME, organism-based; conditions: in vivo
[5] = Drug metabolism in mouse xenografted with human NCI-H2122 cells assessed as M3 metabolite formation in lungs at 50 mg/kg, ip after 3 hrs by LC-MS/MS analysis; format: ADME, organism-based, Lung; conditions: in vivo
[6] = Drug metabolism in mouse xenografted with human NCI-H2122 cells assessed as M4 metabolite formation in kidney at 50 mg/kg, ip after 3 hrs by LC-MS/MS analysis; format: ADME, organism-based; conditions: in vivo
[7] = Drug uptake in kidney of mouse xenografted with human NCI-H2122 cells at 50 mg/kg, ip after 3 hrs by LC-MS/MS analysis; format: ADME, organism-based; conditions: read-out: Drug uptake
[8] = Drug metabolism in mouse xenografted with human NCI-H2122 cells assessed as 6-amino-4-(2,5-dihydroxyphenyl)-3-(naphthalen-2-yl)-1,4-dihydropyrano[2,3-c]pyrazole-5-carbonitrile metabolite formation in heart at 50 mg/kg, ip after 3 hrs by LC-MS/MS analysis; format: ADME, organism-based; conditions: in vivo, BLD = below limit of detection
[9] = Drug metabolism in CD1 mouse liver microsomes assessed as CYP450-mediated demethylation by measuring M4 metabolite formation at 16.7 uM after 10 mins in presence of NADPH by LC-MS/MS analysis; format: ADME
[10] = Drug uptake in lungs of mouse xenografted with human NCI-H2122 cells at 50 mg/kg, ip after 3 hrs by LC-MS/MS analysis; format: ADME, organism-based; conditions: lung, read-out: Drug uptake

Structure (SMILES): COc1ccc(OC)c(C2C(C#N)=C(N)Oc3[nH]nc(-c4ccc5ccccc5c4)c32)c1 (stereo not given)
- concentration at 3 h [1]: 3910 ng/mL
- Drug metabolism [2]: 0.6 ng/g
- concentration at 3 h [3]: 570 ng/g
- Drug metabolism [4]: 49.6 ng/g
- Drug metabolism [5]: 2 ng/g
- Drug metabolism [6]: 260 ng/g
- concentration at 3 h [7]: 24600 ng/g
- Drug metabolism [8]: Bld
- Drug metabolism [9]: Metabolite_Detected
- concentration at 3 h [10]: 21600 ng/g
